Measurements: ChEMBL document CHEMBL1201862, “PubChem BioAssay data set” (2004)
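These data come from cells grown in 96-well plates and exposed to compound for 48 hours at five concentrations. GI50 marks 50% less growth.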 Activity calls are given as the source filed them. No stated cut-off is given here; in the data, active = GI50 up to about 1.1 µM and inactive = higher.

Columns and labels:
Test in all cases: growth of human tumour cells (NCI), 48 h
[1] = tested on: CCRF-CEM
[2] = tested on: SF-295
[3] = tested on: OVCAR-4
[4] = tested on: COLO 205
[5] = tested on: HT-29
[6] = tested on: SK-MEL-2
[7] = tested on: RXF 393
[8] = tested on: LOX IMVI
[9] = tested on: M14
[10] = tested on: A549
[11] = tested on: HCC 2998
[12] = tested on: NCI-H522
[13] = tested on: SN12C
[14] = tested on: U-251
[15] = tested on: HCT-15
[16] = tested on: UACC-62
[17] = tested on: A498
[18] = tested on: NCI-H226
[19] = tested on: SR

| Structure (SMILES) | GI50 [1] | GI50 [2] | GI50 [3] | GI50 [4] | GI50 [5] | GI50 [6] | GI50 [7] | GI50 [8] | GI50 [9] | GI50 [10] | GI50 [11] | GI50 [12] | GI50 [13] | GI50 [14] | GI50 [15] | GI50 [16] | GI50 [17] | GI50 [18] | GI50 [19] |
| --- | --- | --- | --- | --- | --- | --- | --- | --- | --- | --- | --- | --- | --- | --- | --- | --- | --- | --- | --- |
| O=S(=O)(C/C(=N\O)c1ccccc1)c1ccccc1 | > 100 µM (inactive) | > 100 µM (inactive) | > 100 µM (inactive) | > 100 µM (inactive) | > 100 µM (inactive) | > 100 µM (inactive) | > 100 µM (inactive) | > 100 µM (inactive) | > 100 µM (inactive) | > 100 µM (inactive) | > 100 µM (inactive) | 57.9 µM (inactive) | > 100 µM (inactive) | > 100 µM (inactive) | > 100 µM | > 100 µM (inactive) | > 100 µM (inactive) | > 100 µM (inactive) | – |
| Cn1cc(C(=O)c2ccccc2)cc(C(=O)c2ccccc2)c1=O | > 100 µM (inactive) | > 100 µM (inactive) | > 100 µM (inactive) | > 100 µM (inactive) | > 100 µM (inactive) | > 100 µM (inactive) | > 100 µM (inactive) | > 100 µM (inactive) | > 100 µM (inactive) | > 100 µM (inactive) | > 100 µM (inactive) | > 100 µM (inactive) | > 100 µM (inactive) | > 100 µM (inactive) | > 100 µM | > 100 µM (inactive) | – | > 100 µM (inactive) | > 100 µM (inactive) |
| O=C1C2=C(c3ccccc31)C(c1ccc(Cl)cc1)NC(S)=N2 (stereo not drawn) | 24.5 µM (inactive) | 15.5 µM (inactive) | 15.5 µM (inactive) | 25.5 µM (inactive) | 33.8 µM (inactive) | 23.3 µM (inactive) | – | – | 23.3 µM (inactive) | 19.4 µM (inactive) | – | 20.1 µM (inactive) | 17.2 µM (inactive) | 17.5 µM (inactive) | 18.1 µM | 23 µM (inactive) | 79.1 µM (inactive) | 16.9 µM (inactive) | – |
| CCC1CN2CCc3cc(OC)c(OC)cc3C2CC1CC1c2cc(OC)c(OC)cc2CCN1C(=O)CNC(=O)OC(C)(C)C (stereo not drawn) | 3.34 µM (inactive) | 3.9 µM (inactive) | 2.88 µM (inactive) | 3.44 µM (inactive) | 3.49 µM (inactive) | 12.4 µM (inactive) | 17.5 µM (inactive) | 4.48 µM (inactive) | > 10 µM (inactive) | 4.57 µM (inactive) | 3.1 µM (inactive) | – | 24.1 µM (inactive) | 5.51 µM (inactive) | 12.3 µM | 19.7 µM (inactive) | 32.3 µM (inactive) | 18.3 µM (inactive) | – |
| Cc1cccc2c1Sc1ccccc1C2NC(=O)CCN(C)C (stereo not drawn) | > 100 µM (inactive) | – | > 100 µM (inactive) | > 100 µM (inactive) | > 100 µM (inactive) | – | > 100 µM (inactive) | > 100 µM (inactive) | > 100 µM (inactive) | > 100 µM (inactive) | > 100 µM (inactive) | – | > 100 µM (inactive) | > 100 µM (inactive) | > 100 µM | > 100 µM (inactive) | – | > 100 µM (inactive) | > 100 µM (inactive) |
| CCOC(=O)/C(=C/c1cccc(Cl)c1)N(CC)CC | 43.1 µM (inactive) | 46.3 µM (inactive) | 47.1 µM (inactive) | > 100 µM (inactive) | > 100 µM (inactive) | 29.6 µM (inactive) | – | 81.8 µM (inactive) | 64.3 µM (inactive) | 36.2 µM (inactive) | 79.1 µM (inactive) | 24.3 µM (inactive) | 45.9 µM (inactive) | 43.3 µM (inactive) | 38.7 µM | 33.9 µM (inactive) | > 100 µM (inactive) | 37.8 µM (inactive) | > 100 µM (inactive) |
| COc1ccc(/C=C2\C(=O)N(C(=O)Cc3ccccc3)N=C2C)cc1OC | > 100 µM (inactive) | > 100 µM (inactive) | > 100 µM (inactive) | > 100 µM (inactive) | > 100 µM (inactive) | > 100 µM (inactive) | – | > 100 µM (inactive) | > 100 µM (inactive) | > 100 µM (inactive) | > 100 µM (inactive) | > 100 µM (inactive) | > 100 µM (inactive) | – | > 100 µM | – | – | > 100 µM (inactive) | > 100 µM (inactive) |
| O=C1CCC2(c3ccc(F)cc3)Nc3ncncc3N12 (stereo not drawn) | > 10 µM (inactive) | > 10 µM (inactive) | > 10 µM (inactive) | – | > 10 µM (inactive) | > 10 µM (inactive) | – | > 10 µM (inactive) | > 10 µM (inactive) | > 10 µM (inactive) | > 10 µM (inactive) | > 10 µM (inactive) | > 10 µM (inactive) | > 10 µM (inactive) | > 10 µM | > 10 µM (inactive) | – | > 10 µM (inactive) | > 10 µM (inactive) |
| COC(=O)C(=Cc1cc(OC)c(OC)c(OC)c1-c1cc2c(cc1C1(C)OCCS1)OCO2)C(=O)OC (stereo not drawn) | 33 µM (inactive) | 31.6 µM (inactive) | – | 40 µM (inactive) | 37 µM (inactive) | 21.1 µM (inactive) | 26.7 µM (inactive) | 22.6 µM (inactive) | – | 29.1 µM (inactive) | 32.2 µM (inactive) | 15.8 µM (inactive) | 44.5 µM (inactive) | 45.5 µM (inactive) | 24.7 µM | 15.5 µM (inactive) | – | 32.2 µM (inactive) | 22.2 µM (inactive) |
